In patent US20220089568A1 (Janssen Biotech, Inc., priority 2019, published 2022):

Tests used:
[1] = system: MOLM-13 cells; test: MOLM-13 Cellular Assay; type: cell-based; conditions: Homo sapiens, 72 hours exposure, cell viability by CellTiter-Glo
Method: The day prior to assay set-up, cells were pelleted, resuspended in fresh media, counted, and cells were plated at 0.4×10^6 cell/mL in a T150 flask. […] Cells were exposed to different concentrations of test compounds at 37° C., 5% CO2 for 72 hours immediately after seeding.

[2] = biological target: T1, human DHODH (Homo sapiens, UniProt Q02127); test: DHODH Enzymatic Assay; type: biochemical; conditions: purified human DHODH; DCIP absorbance, end-point mode
T1 construct: purchased Proteros PR-0044
Method: To detect DHODH enzyme activities, dichloroindophenol (DCIP) is added as the final electron acceptor in the assay. DCIP can accept electrons from the reduced coenzyme Q generated in the assay, or from dihydroorotate (DHO) via FMN by binding presumably to the ubiquinone pocket. […] The assay buffer contained […], pH 7.5, 150 mM NaCl, 0.5 mM EDTA, and 0.1% Triton X-100 in MilliQ water. Substrate consisting of 20 mM DHO, 5 mM CoQ6, and 1 mM DCIP in assay buffer, initiates the reaction. […] Absorbance measurements were obtained using the BMG Phera Star plate-reading spectrophotomer. Purified human DHODH was purchased from Proteros (cat. No. PR-0044). Chemicals were purchased from Sigma-Aldrich, Teknova, and Avanti Polar Lipids. Liquid handling was performed using Labcyte Echo and Formulatrix Tempest.

T1 sequence (Q02127 whole entry): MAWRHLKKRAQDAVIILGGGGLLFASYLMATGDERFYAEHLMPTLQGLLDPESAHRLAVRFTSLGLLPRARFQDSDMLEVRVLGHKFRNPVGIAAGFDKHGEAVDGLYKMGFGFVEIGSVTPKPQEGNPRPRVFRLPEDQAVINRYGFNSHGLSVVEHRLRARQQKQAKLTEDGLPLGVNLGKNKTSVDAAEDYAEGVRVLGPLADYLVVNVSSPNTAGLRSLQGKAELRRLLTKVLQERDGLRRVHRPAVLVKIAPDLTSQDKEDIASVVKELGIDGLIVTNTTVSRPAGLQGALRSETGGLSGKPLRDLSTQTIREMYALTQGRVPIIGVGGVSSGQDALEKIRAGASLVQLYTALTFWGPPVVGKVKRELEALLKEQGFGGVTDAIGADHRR

SMILES	EC50 [1]	EC50 [2]
Cc1ccnc(Cl)c1NC(=O)c1cc(F)c(-n2nc(CF)n(CCO)c2=O)nc1O[C@@H](C)C(F)(F)F [Example 116, N-(2-Chloro-4-methyl-3-pyridyl)-5-fluoro-6-[3-(fluoromethyl)-4-(2-hydroxyethyl)-5-oxo-1,2,4-triazol-1-yl]-2-[(1S)-2,2,2-trifluoro-1-methyl-ethoxy]pyridine-3-carboxamide]	7.23 nM	20.5 nM
Cc1ccnc(Cl)c1NC(=O)c1cc(F)c(-n2nc(CO)n(CC(F)F)c2=O)nc1O[C@@H](C)C(F)(F)F [Example 90, N-(2-Chloro-4-methyl-3-pyridyl)-6-[4-(2,2-difluoroethyl)-3-(hydroxymethyl)-5-oxo-1,2,4-triazol-1-yl]-5-fluoro-2-[(1S)-2,2,2-trifluoro-1-methyl-ethoxy]pyridine-3-carboxamide]	14.9 nM	23.1 nM
CCn1c(CO)nn(-c2nc(O[C@@H](C)C(F)(F)F)c(C(=O)Nc3c[nH]nc3OC)cc2F)c1=O [Example 58, (S)-6-(4-Ethyl-3-(hydroxymethyl)-5-oxo-4,5-dihydro-1H-1,2,4-triazol-1-yl)-5-fluoro-N-(3-methoxy-1H-pyrazol-4-yl)-2-((1,1,1-trifluoropropan-2-yl)oxy)nicotinamide]	23.2 nM	5.8 nM
CCn1c(CO)nn(-c2nc(O[C@@H](C)C(F)(F)F)c(C(=O)Nc3c(F)cnc(OC)c3C#N)cc2F)c1=O [Example 117, N-(3-Cyano-5-fluoro-2-methoxy-4-pyridyl)-6-[4-ethyl-3-(hydroxymethyl)-5-oxo-1,2,4-triazol-1-yl]-5-fluoro-2-[(1S)-2,2,2-trifluoro-1-methyl-ethoxy]pyridine-3-carboxamide]	15.6 nM	1.03 nM
CCn1c(CO)nn(-c2nc(OC3CC(F)(F)C3(F)F)c(C(=O)Nc3c(F)cccc3Cl)cc2F)c1=O (racemic) [Example 8, Racemic-N-(2-Chloro-6-fluorophenyl)-6-(4-ethyl-3-(hydroxymethyl)-5-oxo-4,5-dihydro-1H-1,2,4-triazol-1-yl)-5-fluoro-2-(2,2,3,3-tetrafluorocyclobutoxy)nicotinamide]	15.7 nM	22.1 nM
CCn1c(CO)nn(-c2nc(O[C@@H](C)C(F)(F)F)c(C(=O)Nc3c[nH]nc3C)cc2F)c1=O [Example 57, (S)-6-(4-Ethyl-3-(hydroxymethyl)-5-oxo-4,5-dihydro-1H-1,2,4-triazol-1-yl)-5-fluoro-N-(3-methyl-1H-pyrazol-4-yl)-2-((1,1,1-trifluoropropan-2-yl)oxy)nicotinamide]	20.2 nM	1.7 nM
CCn1c(CO)nn(-c2nc(O[C@@H](C)C(F)(F)F)c(C(=O)Nc3c(C)nsc3C)cc2F)c1=O [Example 35, (S)-N-(3,5-Dimethylisothiazol-4-yl)-6-(4-ethyl-3-(hydroxymethyl)-5-oxo-4,5-dihydro-1H-1,2,4-triazol-1-yl)-5-fluoro-2-((1,1,1-trifluoropropan-2-yl)oxy)nicotinamide]	6.1 nM	1.9 nM
CCn1c(CO)nn(-c2nc(O[C@@H](C)C(F)(F)F)c(C(=O)Nc3c(C)cnc(OC)c3Cl)cc2F)c1=O [Example 40, (S)-N-(3-Chloro-2-methoxy-5-methylpyridin-4-yl)-6-(4-ethyl-3-(hydroxymethyl)-5-oxo-4,5-dihydro-1H-1,2,4-triazol-1-yl)-5-fluoro-2-((1,1,1-trifluoropropan-2-yl)oxy)nicotinamide]	0.3 nM	0.31 nM
CCn1c(CO)nn(-c2nc(O[C@@H](C)C(F)(F)F)c(C(=O)Nc3nc(OC)ncc3F)cc2F)c1=O [Example 82, 6-[4-Ethyl-3-(hydroxymethyl)-5-oxo-1,2,4-triazol-1-yl]-5-fluoro-N-(5-fluoro-2-methoxy-pyrimidin-4-yl)-2-[(1S)-2,2,2-trifluoro-1-methyl-ethoxy]pyridine-3-carboxamide]	> 100 nM	729 nM
CCn1c(CO)nn(-c2nc(O[C@@H](C)C(F)(F)F)c(C(=O)Nc3ncnc(C)c3Cl)cc2F)c1=O [Example 60, (S)-N-(5-Chloro-6-methylpyrimidin-4-yl)-6-(4-ethyl-3-(hydroxymethyl)-5-oxo-4,5-dihydro-1H-1,2,4-triazol-1-yl)-5-fluoro-2-((1,1,1-trifluoropropan-2-yl)oxy)nicotinamide]	> 100 nM	254 nM
CCn1c(CO)nn(-c2nc(O[C@@H](C)C(F)(F)F)c(C(=O)Nc3nccnc3OC)cc2F)c1=O [Example 34, (S)-6-(4-Ethyl-3-(hydroxymethyl)-5-oxo-4,5-dihydro-1H-1,2,4-triazol-1-yl)-5-fluoro-N-(3-methoxypyrazin-2-yl)-2-((1,1,1-trifluoropropan-2-yl)oxy)nicotinamide]	> 100 nM	360 nM
CCn1c(CO)nn(-c2nc(O[C@@H](C)C(F)(F)F)c(C(=O)Nc3ncsc3C)cc2F)c1=O [Example 32, (S)-6-(4-Ethyl-3-(hydroxymethyl)-5-oxo-4,5-dihydro-1H-1,2,4-triazol-1-yl)-5-fluoro-N-(5-methylthiazol-4-yl)-2-((1,1,1-trifluoropropan-2-yl)oxy)nicotinamide]	25.3 nM	13.6 nM

Other lines, results leading:

EC50 [1]	EC50 [2]	SMILES
5.2 nM	6.1 nM	CCn1c(CO)nn(-c2nc(O[C@@H](C)C(F)(F)F)c(C(=O)Nc3ccccc3F)cc2F)c1=O [Example 2, (S)-6-(4-Ethyl-3-(hydroxymethyl)-5-oxo-4,5-dihydro-1H-1,2,4-triazol-1-yl)-5-fluoro-N-(2-fluorophenyl)-2-((1,1,1-trifluoropropan-2-yl)oxy)nicotinamide]
0.037 nM	0.245 nM	CCn1c(CF)nn(-c2nc(O[C@@H](C)C(F)(F)F)c(C(=O)Nc3c(F)cccc3Cl)cc2F)c1=O [Example 3, (S)-N-(2-Chloro-6-fluorophenyl)-6-(4-ethyl-3-(fluoromethyl)-5-oxo-4,5-dihydro-1H-1,2,4-triazol-1-yl)-5-fluoro-2-((1,1,1-trifluoropropan-2-yl)oxy)nicotinamide]
4.3 nM	2.4 nM	CCn1c(CO)nn(-c2nc(O[C@@H](C)C(F)(F)F)c(C(=O)Nc3c(C)ccnc3F)cc2F)c1=O [Example 42, (S)-6-(4-Ethyl-3-(hydroxymethyl)-5-oxo-4,5-dihydro-1H-1,2,4-triazol-1-yl)-5-fluoro-N-(2-fluoro-4-methylpyridin-3-yl)-2-((1,1,1-trifluoropropan-2-yl)oxy)nicotinamide]
3 nM	0.84 nM	CCn1c(CO)nn(-c2nc(O[C@@H](C)C(F)(F)F)c(C(=O)Nc3c(C)n[nH]c3Cl)cc2F)c1=O [Example 25, (S)-N-(5-Chloro-3-methyl-1H-pyrazol-4-yl)-6-(4-ethyl-3-(hydroxymethyl)-5-oxo-4,5-dihydro-1H-1,2,4-triazol-1-yl)-5-fluoro-2-((1,1,1-trifluoropropan-2-yl)oxy)nicotinamide]
2.5 nM	3.1 nM	CCn1c(CO)nn(-c2nc(O[C@@H](C)C(F)(F)F)c(C(=O)Nc3cnsc3Br)cc2F)c1=O [Example 15, (S)-N-(5-Bromoisothiazol-4-yl)-6-(4-ethyl-3-(hydroxymethyl)-5-oxo-4,5-dihydro-1H-1,2,4-triazol-1-yl)-5-fluoro-2-((1,1,1-trifluoropropan-2-yl)oxy)nicotinamide]
1.39 nM	20.1 nM	CCn1c(CO)nn(-c2nc(O[C@@H](C)C(F)(F)F)c(C(=O)Nc3c(Cl)ncc(C)c3C)cc2F)c1=O [Example 102, N-(2-Chloro-4,5-dimethyl-3-pyridyl)-6-[4-ethyl-3-(hydroxymethyl)-5-oxo-1,2,4-triazol-1-yl]-5-fluoro-2-[(1S)-2,2,2-trifluoro-1-methyl-ethoxy]pyridine-3-carboxamide]
3.3 nM	2.2 nM	CCn1c(CO)nn(-c2nc(O[C@@H](C)C(F)(F)F)c(C(=O)Nc3c(C)ccnc3C(F)F)cc2F)c1=O [Example 13, (S)-N-(2-(Difluoromethyl)-4-methylpyridin-3-yl)-6-(4-ethyl-3-(hydroxymethyl)-5-oxo-4,5-dihydro-1H-1,2,4-triazol-1-yl)-5-fluoro-2-((1,1,1-trifluoropropan-2-yl)oxy)nicotinamide]
5.3 nM	1.9 nM	CCn1c(CO)nn(-c2nc(O[C@@H](C)C(F)(F)F)c(C(=O)Nc3c(Cl)ccnc3C)cc2F)c1=O [Example 79, N-(4-Chloro-2-methyl-3-pyridyl)-6-[4-ethyl-3-(hydroxymethyl)-5-oxo-1,2,4-triazol-1-yl]-5-fluoro-2-[(1S)-2,2,2-trifluoro-1-methyl-ethoxy]pyridine-3-carboxamide]
0.303 nM	4.12 nM	CCn1c(CO)nn(-c2nc(O[C@@H](C)C(F)(F)F)c(C(=O)Nc3c(Cl)n[nH]c3C(F)(F)F)cc2F)c1=O [Example 112, N-[3-Chloro-5-(trifluoromethyl)-1H-pyrazol-4-yl]-6-[4-ethyl-3-(hydroxymethyl)-5-oxo-1,2,4-triazol-1-yl]-5-fluoro-2-[(1S)-2,2,2-trifluoro-1-methyl-ethoxy]pyridine-3-carboxamide]
0.345 nM	1.93 nM	CCn1c(CO)nn(-c2nc(O[C@@H](C)C(F)(F)F)c(C(=O)Nc3c(C)n[nH]c3C(F)(F)F)cc2F)c1=O [Example 111, 6-[4-Ethyl-3-(hydroxymethyl)-5-oxo-1,2,4-triazol-1-yl]-5-fluoro-N-[3-methyl-5-(trifluoromethyl)-1H-pyrazol-4-yl]-2-[(1S)-2,2,2-trifluoro-1-methyl-ethoxy]pyridine-3-carboxamide]
